Data reported in ChEMBL document CHEMBL4002623, “Synthesis and in vitro activity of dicationic indolyl diphenyl ethers as novel potent antibiotic agents against drug-resistant bacteria” (Bioorg Med Chem Lett, 2017).
Values after ≈ are worked out from the molar mass of the structure shown.

Columns and labels:
Citrobacter freundii = assay: Antibacterial activity against Citrobacter freundii ATCC 43864 by agar dilution method; assay type: functional
Enterococcus faecalis [1] = assay: Antibacterial activity against vancomycin-sensitive Enterococcus faecalis ATCC 29212 by agar dilution method; assay type: functional
Serratia marcescens = assay: Antibacterial activity against Serratia marcescens 41002 by agar dilution method; assay type: functional
Pseudomonas aeruginosa [2] = assay: Antibacterial activity against Pseudomonas aeruginosa PAO1 by agar dilution method; assay type: functional
[3] = test system: Staphylococcus epidermidis; assay: Antibacterial activity against methicillin-sensitive Staphylococcus epidermidis ATCC 12228 by agar dilution method; assay type: functional
Enterococcus faecium [4] = assay: Antibacterial activity against vancomycin-resistant Enterococcus faecium 05-8 by agar dilution method; assay type: functional
Enterococcus faecalis [5] = assay: Antibacterial activity against vancomycin-sensitive Enterococcus faecalis 09-8 by agar dilution method; assay type: functional
Enterococcus faecalis [6] = assay: Antibacterial activity against vancomycin-resistant Enterococcus faecalis 09-9 by agar dilution method; assay type: functional
Klebsiella pneumoniae [7] = assay: Antibacterial activity against extended-spectrum beta-lactamase-negative Klebsiella pneumoniae 09-8 by agar dilution method; assay type: functional
Enterococcus faecium [8] = assay: Antibacterial activity against vancomycin-resistant Enterococcus faecium ATCC 700221 by agar dilution method; assay type: functional
Klebsiella pneumoniae [9] = assay: Antibacterial activity against extended-spectrum beta-lactamase-positive Klebsiella pneumoniae ATCC 700603 by agar dilution method; assay type: functional
Staphylococcus aureus [10] = assay: Antibacterial activity against methicillin-resistant Staphylococcus aureus 09-13 by agar dilution method; assay type: functional
[11] = test system: Staphylococcus epidermidis; assay: Antibacterial activity against methicillin-sensitive Staphylococcus epidermidis 09-9 by agar dilution method; assay type: functional
Escherichia coli [12] = assay: Antibacterial activity against extended-spectrum beta-lactamase-negative Escherichia coli 09-20 by agar dilution method; assay type: functional
Proteus mirabilis = assay: Antibacterial activity against Proteus mirabilis 09-1 by agar dilution method; assay type: functional
Salmonella typhi = assay: Antibacterial activity against Salmonella typhi H901 by agar dilution method; assay type: functional, Salmonella enterica subsp. enterica serovar Typhi; conditions: Salmonella enterica
Enterococcus faecium [13] = assay: Antibacterial activity against vancomycin-sensitive Enterococcus faecium 09-10 by agar dilution method; assay type: functional
Klebsiella pneumoniae [14] = assay: Antibacterial activity against extended-spectrum beta-lactamase-negative Klebsiella pneumoniae 7 by agar dilution method; assay type: functional
Pseudomonas aeruginosa [15] = assay: Antibacterial activity against Pseudomonas aeruginosa ATCC 27853 by agar dilution method; assay type: functional
Klebsiella pneumoniae [16] = assay: Antibacterial activity against extended-spectrum beta-lactamase-positive Klebsiella pneumoniae 09-25 by agar dilution method; assay type: functional
[17] = Cytotoxicity against HEK293T cells after 48 hrs by MTS assay; assay type: cell-based, HEK-293T; conditions: human
[18] = test system: Acinetobacter calcoaceticus; assay: Antibacterial activity against Acinetobacter calcoaceticus ATCC 19606 by agar dilution method; assay type: functional
Escherichia coli [19] = assay: Antibacterial activity against extended-spectrum beta-lactamase-negative Escherichia coli ATCC 25922 by agar dilution method; assay type: functional
Klebsiella aerogenes = assay: Antibacterial activity against Enterobacter aerogenes 45102 by agar dilution method; assay type: functional
Escherichia coli [20] = assay: Antibacterial activity against extended-spectrum beta-lactamase-negative Escherichia coli 1515 by agar dilution method; assay type: functional
Klebsiella pneumoniae [21] = assay: Antibacterial activity against Klebsiella pneumoniae ATCC BAA-2146 expressing NDM-1 by agar dilution method; assay type: functional
Enterobacter cloacae = assay: Antibacterial activity against Enterobacter cloacae 45301 by agar dilution method; assay type: functional
Staphylococcus aureus [22] = assay: Antibacterial activity against methicillin-resistant Staphylococcus aureus ATCC 33591 by agar dilution method; assay type: functional
Escherichia coli [23] = assay: Antibacterial activity against extended-spectrum beta-lactamase-positive Escherichia coli 09-1 by agar dilution method; assay type: functional
Providencia rettgeri = assay: Antibacterial activity against Providencia rettgeri ATCC 31052 by agar dilution method; assay type: functional
Enterococcus faecalis [24] = assay: Antibacterial activity against vancomycin-resistant Enterococcus faecalis ATCC 51299 by agar dilution method; assay type: functional
[25] = test system: Staphylococcus epidermidis; assay: Antibacterial activity against methicillin-resistant Staphylococcus epidermidis 09-3 by agar dilution method; assay type: functional
Morganella morganii = assay: Antibacterial activity against Morganella morganii ATCC 25830 by agar dilution method; assay type: functional
Staphylococcus aureus [26] = assay: Antibacterial activity against methicillin-sensitive Staphylococcus aureus 15 by agar dilution method; assay type: functional
Staphylococcus aureus [27] = assay: Antibacterial activity against methicillin-sensitive Staphylococcus aureus ATCC 29213 by agar dilution method; assay type: functional
Pseudomonas aeruginosa [28] = assay: Antibacterial activity against Pseudomonas aeruginosa 09-14 by agar dilution method; assay type: functional
Proteus vulgaris = assay: Antibacterial activity against Proteus vulgaris ATCC 29905 by agar dilution method; assay type: functional
Staphylococcus aureus [29] = assay: Antibacterial activity against methicillin-sensitive Staphylococcus aureus 09-6 by agar dilution method; assay type: functional

SMILES | MIC (Citrobacter freundii) | MIC (Enterococcus faecalis [1]) | MIC (Serratia marcescens) | MIC (Pseudomonas aeruginosa [2]) | MIC [3] | MIC (Enterococcus faecium [4]) | MIC (Enterococcus faecalis [5]) | MIC (Enterococcus faecalis [6]) | MIC (Klebsiella pneumoniae [7]) | MIC (Enterococcus faecium [8]) | MIC (Klebsiella pneumoniae [9]) | MIC (Staphylococcus aureus [10]) | MIC [11] | MIC (Escherichia coli [12]) | MIC (Proteus mirabilis) | MIC (Salmonella typhi) | MIC (Enterococcus faecium [13]) | MIC (Klebsiella pneumoniae [14]) | MIC (Pseudomonas aeruginosa [15]) | MIC (Klebsiella pneumoniae [16]) | also measured
CCC(CC)NC(=N)c1ccc2cc(-c3ccc(Oc4ccc(-c5cc6ccc(C(=N)NC(CC)CC)cc6[nH]5)cc4)cc3)[nH]c2c1 | 16 µg/mL (≈ 25.6 µM) | 4 µg/mL (≈ 6.4 µM) | 16 µg/mL (≈ 25.6 µM) | 32 µg/mL (≈ 51.2 µM) | 0.5 µg/mL (≈ 0.8 µM) | 4 µg/mL (≈ 6.4 µM) | 2 µg/mL (≈ 3.2 µM) | 8 µg/mL (≈ 12.8 µM) | 16 µg/mL (≈ 25.6 µM) | 2 µg/mL (≈ 3.2 µM) | 16 µg/mL (≈ 25.6 µM) | 2 µg/mL (≈ 3.2 µM) | 2 µg/mL (≈ 3.2 µM) | 16 µg/mL (≈ 25.6 µM) | 32 µg/mL (≈ 51.2 µM) | 16 µg/mL (≈ 25.6 µM) | 4 µg/mL (≈ 6.4 µM) | 16 µg/mL (≈ 25.6 µM) | 16 µg/mL (≈ 25.6 µM) | 16 µg/mL (≈ 25.6 µM) | CC50 at 48 h [17]: 25.4 µg/mL (≈ 40.7 µM); MIC [18]: 16 µg/mL (≈ 25.6 µM); MIC (Escherichia coli [19]): 16 µg/mL (≈ 25.6 µM); MIC (Klebsiella aerogenes): 16 µg/mL (≈ 25.6 µM); MIC (Escherichia coli [20]): 32 µg/mL (≈ 51.2 µM); MIC (Klebsiella pneumoniae [21]): 16 µg/mL (≈ 25.6 µM); MIC (Enterobacter cloacae): 16 µg/mL (≈ 25.6 µM); MIC (Staphylococcus aureus [22]): 2 µg/mL (≈ 3.2 µM); MIC (Escherichia coli [23]): 16 µg/mL (≈ 25.6 µM); MIC (Providencia rettgeri): 16 µg/mL (≈ 25.6 µM); MIC (Enterococcus faecalis [24]): 4 µg/mL (≈ 6.4 µM); MIC [25]: 1 µg/mL (≈ 1.6 µM); MIC (Morganella morganii): 8 µg/mL (≈ 12.8 µM); MIC (Staphylococcus aureus [26]): 2 µg/mL (≈ 3.2 µM); MIC (Staphylococcus aureus [27]): 2 µg/mL (≈ 3.2 µM); MIC (Pseudomonas aeruginosa [28]): 32 µg/mL (≈ 51.2 µM); MIC (Proteus vulgaris): 16 µg/mL (≈ 25.6 µM); MIC (Staphylococcus aureus [29]): 2 µg/mL (≈ 3.2 µM)
N=C(NC1CC1)c1ccc2cc(-c3ccc(Oc4ccc(-c5cc6ccc(C(=N)NC7CC7)cc6[nH]5)cc4)cc3)[nH]c2c1 | > 128 µg/mL | 4 µg/mL (≈ 7.08 µM) | > 128 µg/mL | > 128 µg/mL | 1 µg/mL (≈ 1.77 µM) | 4 µg/mL (≈ 7.08 µM) | 4 µg/mL (≈ 7.08 µM) | 8 µg/mL (≈ 14.2 µM) | > 128 µg/mL | 4 µg/mL (≈ 7.08 µM) | > 128 µg/mL | 4 µg/mL (≈ 7.08 µM) | 4 µg/mL (≈ 7.08 µM) | 128 µg/mL (≈ 227 µM) | > 128 µg/mL | > 128 µg/mL | 8 µg/mL (≈ 14.2 µM) | > 128 µg/mL | > 128 µg/mL | > 128 µg/mL | CC50 at 48 h [17]: 36.9 µg/mL (≈ 65.3 µM); MIC [18]: > 128 µg/mL; MIC (Escherichia coli [19]): 128 µg/mL (≈ 227 µM); MIC (Klebsiella aerogenes): 128 µg/mL (≈ 227 µM); MIC (Escherichia coli [20]): 128 µg/mL (≈ 227 µM); MIC (Klebsiella pneumoniae [21]): > 128 µg/mL; MIC (Enterobacter cloacae): > 128 µg/mL; MIC (Staphylococcus aureus [22]): 4 µg/mL (≈ 7.08 µM); MIC (Escherichia coli [23]): 128 µg/mL (≈ 227 µM); MIC (Providencia rettgeri): > 128 µg/mL; MIC (Enterococcus faecalis [24]): 4 µg/mL (≈ 7.08 µM); MIC [25]: 2 µg/mL (≈ 3.54 µM); MIC (Morganella morganii): 128 µg/mL (≈ 227 µM); MIC (Staphylococcus aureus [26]): 4 µg/mL (≈ 7.08 µM); MIC (Staphylococcus aureus [27]): 4 µg/mL (≈ 7.08 µM); MIC (Pseudomonas aeruginosa [28]): > 128 µg/mL; MIC (Proteus vulgaris): > 128 µg/mL; MIC (Staphylococcus aureus [29]): 4 µg/mL (≈ 7.08 µM)
N=C(c1ccc2cc(-c3ccc(Oc4ccc(-c5cc6ccc(C(=N)N7CCCCC7)cc6[nH]5)cc4)cc3)[nH]c2c1)N1CCCCC1 | > 128 µg/mL | 32 µg/mL (≈ 51.5 µM) | > 128 µg/mL | > 128 µg/mL | 8 µg/mL (≈ 12.9 µM) | 32 µg/mL (≈ 51.5 µM) | 32 µg/mL (≈ 51.5 µM) | 32 µg/mL (≈ 51.5 µM) | > 128 µg/mL | 16 to 32 µg/mL (≈ 25.8 to 51.5 µM) | > 128 µg/mL | 16 µg/mL (≈ 25.8 µM) | 8 µg/mL (≈ 12.9 µM) | > 128 µg/mL | > 128 µg/mL | > 128 µg/mL | 16 to 32 µg/mL (≈ 25.8 to 51.5 µM) | > 128 µg/mL | > 128 µg/mL | > 128 µg/mL | CC50 at 48 h [17]: 2.5 µg/mL (≈ 4.03 µM); MIC [18]: > 128 µg/mL; MIC (Escherichia coli [19]): > 128 µg/mL; MIC (Klebsiella aerogenes): > 128 µg/mL; MIC (Escherichia coli [20]): > 128 µg/mL; MIC (Klebsiella pneumoniae [21]): > 128 µg/mL; MIC (Enterobacter cloacae): > 128 µg/mL; MIC (Staphylococcus aureus [22]): 16 µg/mL (≈ 25.8 µM); MIC (Escherichia coli [23]): > 128 µg/mL; MIC (Providencia rettgeri): > 128 µg/mL; MIC (Enterococcus faecalis [24]): 64 µg/mL (≈ 103 µM); MIC [25]: 8 µg/mL (≈ 12.9 µM); MIC (Morganella morganii): > 128 µg/mL; MIC (Staphylococcus aureus [26]): 16 µg/mL (≈ 25.8 µM); MIC (Staphylococcus aureus [27]): 16 µg/mL (≈ 25.8 µM); MIC (Pseudomonas aeruginosa [28]): > 128 µg/mL; MIC (Proteus vulgaris): > 128 µg/mL; MIC (Staphylococcus aureus [29]): 16 µg/mL (≈ 25.8 µM)
